This series can be described thus: Ellipsometry of dry TA/MnP-PVPON films at pH 5 and pH 2.5 (film stability). In kind it is physicochemical. As to the method:
The stability of the MnP-PVPON/TA multilayers dried from pH=2.5 was examined since ionization of TA is minimized at this pH (below the pKa of TA), which could result in destabilization of the film.
Ellipsometry: Film thickness was measured using a M2000U spectroscopic ellipsometer (Woollam). Single-side polished silicon wafers 500-μm-thick (University Wafer) of 20 mm×50 mm were cleaned in a mixture of concentrated sulfuric acid and Nocromix (Godax Laboratories) for 24 hours, washed with DI water, dried with a stream of nitrogen (Airgas) and used immediately thereafter. First, a precursor layer of poly(ethyleneimine) (PEI, Sigma-Aldrich) was adsorbed onto the wafer surface from 1 mg mL^−1 PEI aqueous solution for 10 min. After that the deposition of TA, PVPON and MnP-PVPON onto silicon wafers coated with a PEI layer was performed using a 5-mL liquid flow-through cell (Woollam) at pH=5 and pH=7.2 (0.01 M phosphate buffer). The pH values of 0.01 M phosphate buffers were adjusted using 0.1 M HCl and NaOH aqueous solutions. Dry thickness measurements were performed between 400 and 1000 nm at 65, 70, and 75° angles of incidence, while wet thickness studies were monitored at 75° incidence angle. […] The thickness of silicon oxide was determined using known optical constants. […]

Each structure is given as a SMILES string.

Compound `O=C(OC[C@H]1O[C@@H](OC(=O)c2cc(O)c(O)c(OC(=O)c3cc(O)c(O)c(O)c3)c2)[C@H](OC(=O)c2cc(O)c(O)c(OC(=O)c3cc(O)c(O)c(O)c3)c2)[C@@H](OC(=O)c2cc(O)c(O)c(OC(=O)c3cc(O)c(O)c(O)c3)c2)[C@@H]1OC(=O)c1cc(O)c(O)c(OC(=O)c2cc(O)c(O)c(O)c2)c1)c1cc(O)c(O)c(OC(=O)c2cc(O)c(O)c(O)c2)c1` [TA, tannic acid] had a Layer thickness of 1.8 nm and a Total thickness of 4.1 nm.

The values are drawn from patent US20200179294A1, “MANGANOPORPHYRIN-POLYPHENOL MULTILAYER CAPSULES AS RADICAL AND REACTIVE OXYGEN SPECIES SCAVENGERS” (THE UAB RESEARCH FOUNDATION, priority 2018, published 2020).
